Test results published in article PMC7852560 (Neuropsychopharmacology, 2020).
Values joined by “and” are separate entries in the source; they are usually repeats but may differ in a detail not shown here. Equal values may be shown once.

How the values were obtained:
in vivo = assay: in vivo; parameters: species or system male C57Bl/6 mice
Experimental: Microsomal stability assays were conducted by Cyprotex Ltd (Macclesfield, UK).
Blood samples (approximately 60 µL; n=3 mice per time-point) were taken at 0.08, 0.25, 0.5, 1, 2, 4, 6 and 8 hrs. Immediately after collection of blood, brain samples were collected from the set of three mice at each time point. Plasma samples were separated by centrifugation of whole blood, while brain samples were homogenized in ice-cold phosphate buffer saline (pH 7.4). Total homogenate volume was three times the brain weight. Plasma and homogenates were stored below -70±10 °C until analysis. The extraction procedure for plasma/brain samples and the spiked plasma/brain calibration standards were identical. To a 25 µL volume of study sample (dilution factor applied to some samples) or spiked plasma/brain calibration standard, 100 µL of internal standard prepared in acetonitrile (Glipizide, 500 ng/mL) was added, except for blank where 100 µL of acetonitrile was added. […] Pharmacokinetic parameters were calculated using the non-compartmental analysis tool of Phoenix WinNonlin® (Version 7.0). Areas under the concentration time curve (AUC) values were calculated by linear trapezoidal rule.

CB2 = molecular target: T1, CB2 (Homo sapiens, UniProt P34972); assay: SafetyScreen44 panel: CB2; type: binding; conditions: 1 µM
T1 construct: Eurofins Cerep
T1 sequence (P34972 whole entry): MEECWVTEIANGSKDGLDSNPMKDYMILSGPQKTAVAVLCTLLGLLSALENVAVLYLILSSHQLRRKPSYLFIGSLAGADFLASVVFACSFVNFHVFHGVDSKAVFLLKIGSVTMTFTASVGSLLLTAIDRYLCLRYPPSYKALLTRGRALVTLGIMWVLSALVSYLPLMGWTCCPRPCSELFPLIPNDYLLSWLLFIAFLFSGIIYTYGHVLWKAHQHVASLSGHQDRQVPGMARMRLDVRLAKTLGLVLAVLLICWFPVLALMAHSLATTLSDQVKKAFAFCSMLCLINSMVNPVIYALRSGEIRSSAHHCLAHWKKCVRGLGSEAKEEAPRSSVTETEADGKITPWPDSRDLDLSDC
Experimental: The screen assesses the selectivity of the compound on a diverse panel of targets that includes GPCRs, drug transporters, ion channels, nuclear receptors, kinases, and other non-kinase enzymes. The screen employs radioligand binding or enzyme assays for these 44 targets.
For receptor assays, binding was calculated as percent inhibition of the binding of a radioactively labeled ligand specific for each target. For enzyme assays, the inhibition effect was calculated as percent inhibition of control enzyme activity. Tests were performed in duplicate, and results are averages of those two tests. See https://www.eurofinsdiscoveryservices.com.

5HT2A = molecular target: T2, 5HT2A (Homo sapiens, UniProt P28223); assay: SafetyScreen44 panel: 5HT2A; type: binding; conditions: 1 µM
T2 construct: Eurofins Cerep
T2 sequence (P28223 whole entry): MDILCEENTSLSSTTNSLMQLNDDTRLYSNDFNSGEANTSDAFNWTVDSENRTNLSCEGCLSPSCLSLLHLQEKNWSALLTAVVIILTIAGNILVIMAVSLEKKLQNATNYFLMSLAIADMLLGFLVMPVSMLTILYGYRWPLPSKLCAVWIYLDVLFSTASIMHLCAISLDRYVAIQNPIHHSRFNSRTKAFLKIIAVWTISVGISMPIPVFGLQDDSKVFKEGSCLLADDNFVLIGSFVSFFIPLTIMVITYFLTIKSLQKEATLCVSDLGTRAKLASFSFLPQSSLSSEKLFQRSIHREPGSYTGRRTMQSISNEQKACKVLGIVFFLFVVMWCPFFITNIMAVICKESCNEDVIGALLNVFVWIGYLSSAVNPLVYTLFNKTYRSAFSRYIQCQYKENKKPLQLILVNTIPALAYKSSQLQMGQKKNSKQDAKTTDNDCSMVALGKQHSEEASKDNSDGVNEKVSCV
Source text: See https://www.eurofinsdiscoveryservices.com.

Male C57Bl/6J mice = assay: Cannabinoid-induced tetrad; type: in vivo; conditions: 10 mg/kg i.p., 30 min prior
Experimental: Male C57Bl/6J mice (PD > 70) were tested on the cannabinoid-induced tetrad, as previously described.
(i.p.) before testing. The tetrad was performed (1) catalepsy, (2) locomotion, (3) temperature, and (4) analgesia. Catalepsy: time (s) spent immobile with front paws on a plastic rod (1.5cm diameter), at a height of 4.5-cm from the table, before adjusting abnormal posture (either front paws being removed from the bar, or back paws climbing onto bar). Locomotion: horizontal activity (cm) was immediately measured in an open field test, following catalepsy, for 15-min. in 1-min bins. Temperature: rectal temperature (°C) was measured immediately following open-field testing, using a thermometer with rectal probe (Labcorp, Fisher, Waltham, MA). Analgesia: latency (s) to withdraw tail from hot water bath (52 °C), to assess tail-flick antinociception, was completed immediately following temperature readings.

GluN1KD mice = assay: Pre-pulse inhibition in GluN1KD mice; type: in vivo; conditions: ABM300 10 mg/kg, OLA 1 mg/kg i.p.
Experimental: Pre-Pulse Inhibition (PPI): PPI of the acoustic startle response was measured on day 3, via SR-LAB equipment and software from San Diego Instruments. Accelerometers were calibrated to 700±5 mV and output voltages were amplified and analyzed for voltage changes using SR Analysis (San Diego Instruments, San Diego, CA, USA), and exported as an excel file. Background white noise was maintained at 65dB. PPI was measured in a 30-min test with 80 randomized trials of: (1) 10 trials pulse alone (2) 10 trials pre-pulse alone (for each pre-pulse), (3) 10 trials pre-pulse plus pulse (for each pre-pulse), and (4) 10 trials no pulse. 5 pulse alone trials were performed before and after the 80 trials, totaling 90 trials per run. The pre-pulse (4dB, 8dB, or 16dB) was presented 100ms prior to the startle pulse […]. The inter-stimulus interval (ISI) was randomized between 5 and 20s. Experimental mice were placed in a cylindrical tube on a platform in a soundproof chamber. Mice were allowed to acclimatize in the chamber and to the background noise for 300s, followed by 5 consecutive pulse alone trials, then by 80 randomized trials (as described above) and then 5 consecutive pulse alone trials. Pre-pulse inhibition was measured as a decrease in the amplitude of startle response to a 100dB acoustic startle pulse, following each pre-pulse (4dB, 8dB and 16dB).

Male Sprague Dawley rats = assay: Conditioned avoidance response (CAR); type: in vivo; conditions: rat, in vivo
Experimental: Male Sprague Dawley rats (PD>63) were trained on a CAR protocol and responding following drug exposure was determined. […] Animals were trained to learn a house light (CS) as predictive of an avoidable 0.6mA scrambled foot shock (US). Each session consisted of 50 trials and animals avoided >70% of trials on the final acquisition session were tested for CAR during vehicle baseline, drug exposure, and re-emergence. In addition to CAR testing, both temperature and catalepsy were recorded in these animals (measure of potential CB1R agonism). Temperature: recorded on first day of drug exposure, prior to injection and 60-90-min. following drug exposure.

[1] = male, C57Bl/6, mouse, ip, 10 mg/kg

Compound: CCc1c(-c2nnc(Nc3ccccc3)o2)[nH]c2ccc(Cl)cc12 [ABM300, 5-(5-chloro-3-ethyl-1H-indol-2-yl)-N-phenyl-1,3,4-oxadiazol-2-amine]
- concentration at 30 min (in vivo; male, C57Bl/6, mouse, 10 mg/kg i.p., at 30 min, read-out: brain concentration): 374 ± 39 ng/mL
- AUC(0-t) (in vivo; [1]): 2050 ng·h/mL
- Cmax (in vivo; [1]): 866 ng/mL and 412 ng/g
- Tmax (in vivo; male, C57Bl/6, mouse, ip, 10 mg/kg, Tmax): 0.5 h
- AUClast (in vivo; mouse, ip, 10 mg/kg): 1577.92 ng·h/g
- half-life (in vivo; mouse, ip, 10 mg/kg i.p., male C57Bl/6 mice): ~2 h
- binding to CB2 (CB2): did not display any significant binding
- binding to 5HT2A (5HT2A): did not display any significant binding
- tetrad: catalepsy-induced immobility time (Male C57Bl/6J mice): no effect
- tetrad: percent inhibition of locomotor activity (15 min) (Male C57Bl/6J mice): no effect
- tetrad: rectal temperature (Male C57Bl/6J mice): no effect
- tetrad: tail withdrawal (% MPE) (Male C57Bl/6J mice): no effect
- acoustic startle response (GluN1KD mice): did not respond
- sensorimotor gating deficits (PPI; 4, 8, 16 dB) (GluN1KD mice): did not respond
- avoidance behavior in CAR (Male Sprague Dawley rats): no effect
